Reference: EP0745595A1, “3-(3-Aryloxyphenyl)-1-(substituted methyl)-s-triazine-2,4,6-oxo or thiotrione herbicidal agents” (American Cyanamid Company, priority 1995, dated 1996)

How the values were obtained:
Type in all cases: in vivo
CHENOPODIUM ALBUM, L. [1] = test: Preemergence herbicidal evaluation, CHEAL (Lambsquarters, Common); settings: for CHEAL herbicidal rating: rated four to five weeks after treatment
Method in brief: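 Greenhouse preemergence test; treated soil cups received compound in aqueous acetone (about 0.125 to 0.50 kg/ha) right after sowing and were assessed visually 4-5 weeks later on a 0-9 scale compared with control plants.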

CASSIA OBTUSIFOLIA, L. = test: Postemergence herbicidal evaluation, CASOB (Sicklepod); set-up: key to CASOB rating / Herbicidal effect rating, CASOB / CASOB: 0-9 visual rating scale vs untreated control
Method in brief: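 Ratings (0-9) reflect visual stand, vigor, malformation, size and chlorosis compared with untreated plants, assessed 4-5 weeks after postemergence spraying. Treatment was applied to roughly two-week-old seedlings at about 0.125-0.500 kg/ha in acetone/water with 0.5% Tween 20; replicate tests were averaged.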

IPOMOEA SPP. = test: Postemergence herbicidal evaluation, IPOSS (Morningglory spp.)
Method in brief: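 In this greenhouse postemergence herbicide test on Ipomoea spp. (morningglory), compounds in 50/50 acetone/water with 0.5% TWEEN®20 were sprayed at 40 psi onto seedlings about two weeks old grown in jiffy flats. After four to five weeks, injury was scored on a 0-9 scale covering stand, vigor, malformation, size, chlorosis and overall appearance versus control, with repeat tests averaged.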

[2] = tested on: ECHINOCHLOA CRUS-GALLI, (L) BEAU; test: Postemergence herbicidal evaluation, ECHCG (Barnyardgrass); set-up: key to ECHCG rating / Herbicidal effect rating, ECHCG / ECHCG: 0-9 visual rating scale vs untreated control
Method in brief: (§1)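 Each value is a 0–9 visual rating of plant appearance compared with control, recorded 4–5 weeks after a 0.125–0.500 kg/ha spray, with multiple tests averaged.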

[3] = tested on: ORYZA SATIVA, L. TEBONNET; test: Rice tolerance to post-transplant applications under flooded paddy conditions, ORYSAT (Rice, Tebonnet); settings: for Herbicidal effect rating, ORYSAT: post-transplant rice, 3-4 weeks after treatment; for ORYSAT: post-transplanted rice
Method in brief: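 Greenhouse pots of silt loam, each with two transplanted ten-day-old seedlings, are held under 1.5 to 3 cm of standing water. Three days later the compound is applied to the flooded surface at about 0.5, 0.25, 0.125 or 0.063 kg/ha. Damage is scored visually 0-9 after 3-4 weeks.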

[4] = tested on: TRITICUM AESTIVUM, CV. APOLLO; test: Postemergence herbicidal evaluation, TRZAWO (Wheat, Winter, CV. APOLLO)
Method in brief: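 This greenhouse postemergence test applied compounds to roughly two-week-old wheat seedlings grown in jiffy flats. The spray solution was 50/50 acetone/water with 0.5% TWEEN®20, a polyoxyethylene sorbitan monolaurate, sprayed from a nozzle run at 40 psi. After four to five weeks of standard greenhouse care, injury was scored from 0 to 9 by comparing stand, vigor, malformation, size, chlorosis and overall appearance with a control. Multiple tests were averaged.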

ZEA MAYS L. = test: Postemergence herbicidal evaluation, ZEAMX (Corn, Field)
Method in brief: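 This greenhouse postemergence test treated corn plants about two weeks old. Compounds in a 50/50 acetone/water mixture with 0.5% TWEEN®20 were applied through a spray nozzle at 40 psi. After four to five weeks, injury was scored 0-9 against an untreated control, judging stand, vigor, malformation, size, chlorosis and overall appearance. Repeated tests were averaged.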

[5] = tested on: ABUTILON THEOPHRASTI, MEDIC.; test: Postemergence herbicidal evaluation, ABUTH (Velvetleaf)
Method in brief: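 This postemergence herbicide test used two-week-old velvetleaf seedlings grown in jiffy flats. Each compound was sprayed at 40 psi as a dispersion in 50/50 acetone/water with 0.5% TWEEN®20 surfactant. Plants then received routine greenhouse care. After four to five weeks, injury was scored visually on a 0-9 scale against a control, and replicate tests were averaged.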

[6] = tested on: AMBROSIA ARTEMISIIFOLIA, L.; test: Postemergence herbicidal evaluation, AMBEL (Ragweed, Common)
Method in brief: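 Postemergence herbicidal activity on AMBEL (common ragweed) was assessed on two-week-old seedlings grown in jiffy flats. Treatment solutions of 50/50 acetone/water with 0.5% TWEEN®20 surfactant were sprayed at 40 psi. After four to five weeks in the greenhouse, plants were scored 0-9 against a control for stand, vigor, malformation, size, chlorosis and overall appearance, with multiple tests averaged.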

[7] = tested on: SETARIA VIRIDIS, (L) BEAU; test: Postemergence herbicidal evaluation, SETVI (Foxtail, Green); set-up: key to SETVI rating / Herbicidal effect rating, SETVI / SETVI: 0-9 visual rating scale vs untreated control
Method in brief: as §1

CHENOPODIUM ALBUM, L. [8] = test: Postemergence herbicidal evaluation, CHEAL (Lambsquarters, Common)
Method in brief: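 Postemergence herbicidal activity on Chenopodium album was tested by spraying two-week-old seedlings grown in jiffy flats with compound in acetone/water (50/50) plus 0.5% TWEEN®20, using a 40 psi nozzle. Four to five weeks after treatment, stand, vigor, malformation, size, chlorosis and overall appearance were scored 0-9 relative to controls, with repeat tests averaged.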

Methyl 3-{2-[(2-chloro-α,α,α,-trifluoro-p-tolyl)oxy]phenyl}tetrahydro-5-methyl-2,4,6-trioxo-s-triazine-1(2H)-acetate [Compound 28]
6.0: CHEAL (CHENOPODIUM ALBUM, L. [1]; Rate 0.250 kg/ha) | CHEAL herbicidal rating (CHENOPODIUM ALBUM, L. [1]; Rate 0.250 kg/ha) | CASOB (CASSIA OBTUSIFOLIA, L.; Rate 0.250 kg/ha) | CASOB rating (CASSIA OBTUSIFOLIA, L.; Rate 0.250 kg/ha) | IPOSS (IPOMOEA SPP.; Rate 0.063 kg/ha) | IPOSS (IPOMOEA SPP.; Rate 0.125 kg/ha) | IPOSS rating (IPOMOEA SPP.; Rate 0.125 kg/ha) | ABUTH ([5]; Rate 0.125 kg/ha) | ABUTH rating ([5]; Rate 0.125 kg/ha) | AMBEL ([6]; Rate 0.250 kg/ha) | AMBEL rating ([6]; Rate 0.250 kg/ha) | CHEAL (CHENOPODIUM ALBUM, L. [8]; Rate 0.063 kg/ha) | CHEAL (CHENOPODIUM ALBUM, L. [8]; Rate 0.125 kg/ha) | CHEAL rating (CHENOPODIUM ALBUM, L. [8]; Rate 0.125 kg/ha)
8.0: IPOSS (IPOMOEA SPP.; Rate 0.250 kg/ha) | IPOSS rating (IPOMOEA SPP.; Rate 0.250 kg/ha) | CHEAL (CHENOPODIUM ALBUM, L. [8]; Rate 0.250 kg/ha) | CHEAL rating (CHENOPODIUM ALBUM, L. [8]; Rate 0.250 kg/ha)
7.0: CHEAL (CHENOPODIUM ALBUM, L. [1]; Rate 0.500 kg/ha) | CHEAL herbicidal rating (CHENOPODIUM ALBUM, L. [1]; Rate 0.500 kg/ha) | ABUTH ([5]; Rate 0.250 kg/ha) | ABUTH rating ([5]; Rate 0.250 kg/ha) | AMBEL ([6]; Rate 0.500 kg/ha) | AMBEL rating ([6]; Rate 0.500 kg/ha)
6.5: CASOB (CASSIA OBTUSIFOLIA, L.; Rate 0.500 kg/ha) | CASOB rating (CASSIA OBTUSIFOLIA, L.; Rate 0.500 kg/ha)
2.5: ZEAMX (ZEA MAYS L.; Rate 0.125 kg/ha) | ZEAMX rating (ZEA MAYS L.; Rate 0.125 kg/ha)
1.5: TRZAWO ([4]; Rate 0.063 kg/ha) | ZEAMX (ZEA MAYS L.; Rate 0.063 kg/ha)
4.5: ZEAMX (ZEA MAYS L.; Rate 0.500 kg/ha) | ZEAMX rating (ZEA MAYS L.; Rate 0.500 kg/ha)
1.0: Herbicidal effect rating, ORYSAT ([3]; 0.125 kg/ha) | SETVI ([7]; Rate 0.063 kg/ha) | SETVI ([7]; Rate 0.125 kg/ha) | SETVI rating ([7]; Rate 0.125 kg/ha)
5.0: CASOB (CASSIA OBTUSIFOLIA, L.; Rate 0.125 kg/ha) | CASOB rating (CASSIA OBTUSIFOLIA, L.; Rate 0.125 kg/ha)
0.0: ECHCG ([2]; Rate 0.063 kg/ha) | ECHCG ([2]; Rate 0.125 kg/ha) | ECHCG rating ([2]; Rate 0.125 kg/ha) | ECHCG ([2]; Rate 0.250 kg/ha) | ECHCG rating ([2]; Rate 0.250 kg/ha) | Herbicidal effect rating, ORYSAT ([3]; 0.063 kg/ha)
9.0: CHEAL (CHENOPODIUM ALBUM, L. [1]; Rate 1.000 kg/ha) | IPOSS (IPOMOEA SPP.; Rate 0.500 kg/ha) | IPOSS rating (IPOMOEA SPP.; Rate 0.500 kg/ha) | ABUTH ([5]; Rate 0.500 kg/ha) | ABUTH rating ([5]; Rate 0.500 kg/ha) | CHEAL (CHENOPODIUM ALBUM, L. [8]; Rate 0.500 kg/ha) | CHEAL rating (CHENOPODIUM ALBUM, L. [8]; Rate 0.500 kg/ha)
4.0: ZEAMX (ZEA MAYS L.; Rate 0.250 kg/ha) | ZEAMX rating (ZEA MAYS L.; Rate 0.250 kg/ha) | ABUTH ([5]; Rate 0.063 kg/ha) | AMBEL ([6]; Rate 0.125 kg/ha) | AMBEL rating ([6]; Rate 0.125 kg/ha) | SETVI ([7]; Rate 0.500 kg/ha) | SETVI rating ([7]; Rate 0.500 kg/ha)
2.0: ECHCG ([2]; Rate 0.500 kg/ha) | ECHCG rating ([2]; Rate 0.500 kg/ha) | Herbicidal effect rating, ORYSAT ([3]; 0.250 kg/ha) | Herbicidal effect rating, ORYSAT ([3]; 0.500 kg/ha) | ORYSAT ([3]; Rate 0.250 kg/ha) | ORYSAT ([3]; Rate 0.500 kg/ha) | TRZAWO ([4]; Rate 0.125 kg/ha) | TRZAWO rating ([4]; Rate 0.125 kg/ha) | TRZAWO ([4]; Rate 0.250 kg/ha) | TRZAWO rating ([4]; Rate 0.250 kg/ha) | TRZAWO ([4]; Rate 0.500 kg/ha) | TRZAWO rating ([4]; Rate 0.500 kg/ha) | SETVI ([7]; Rate 0.250 kg/ha) | SETVI rating ([7]; Rate 0.250 kg/ha)
3.0: CHEAL (CHENOPODIUM ALBUM, L. [1]; Rate 0.125 kg/ha) | CHEAL herbicidal rating (CHENOPODIUM ALBUM, L. [1]; Rate 0.125 kg/ha) | CASOB (CASSIA OBTUSIFOLIA, L.; Rate 0.063 kg/ha) | ORYSAT ([3]; Rate 1.000 kg/ha) | AMBEL ([6]; Rate 0.063 kg/ha)
